Data from the supplement of paper PMC8149375.

Key:
Details in all cases: treatment: drug + dasatinib (fixed dose, not stated); 5 days
SN12C [1] = assay: GI50 of drug in presence of dasatinib; higher = less potent
Protocol: (§1)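 Primary HTS combination arm: 8 RCC cell lines treated with 8 doses (up to 10 uM) of each library drug plus a fixed dose of dasatinib (dose not stated) for 5 days; viability read by CellTiter-Glo and normalised to DMSO. GI50 was fitted with XLfit, AUC is the area under the dose-response curve, and minimum viability is the lowest fraction of DMSO viability across doses.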

A498 [2] = assay: as above
Protocol: as §1

CAKI-1 [3] = assay: as above
Protocol: as §1

TK-10 [4] = assay: as above
Protocol: as §1

ACHN [5] = assay: as above
Protocol: as §1

UO-31 [6] = assay: as above
Protocol: as §1

786-O [7] = assay: as above
Protocol: as §1

769-P [8] = assay: as above
Protocol: as §1

SN12C [9] = assay: AUC of dose-response viability curve, drug + dasatinib, normalised to DMSO (arbitrary (AUC of normalised viability)); higher = less growth inhibition
Protocol: as §1

A498 [10] = assay: as above
Protocol: as §1

CAKI-1 [11] = assay: as above
Protocol: as §1

TK-10 [12] = assay: as above
Protocol: as §1

ACHN [13] = assay: as above
Protocol: as §1

UO-31 [14] = assay: as above
Protocol: as §1

786-O [15] = assay: as above
Protocol: as §1

769-P [16] = assay: as above
Protocol: as §1

SN12C [17] = assay: minimum viability across doses, drug + dasatinib, relative to DMSO (fraction); higher = less growth inhibition
Protocol: as §1

A498 [18] = assay: as above
Protocol: as §1

CAKI-1 [19] = assay: as above
Protocol: as §1

TK-10 [20] = assay: as above
Protocol: as §1

ACHN [21] = assay: as above
Protocol: as §1

UO-31 [22] = assay: as above
Protocol: as §1

786-O [23] = assay: as above
Protocol: as §1

769-P [24] = assay: as above
Protocol: as §1

SMILES | GI50 of drug (SN12C [1]) [µM] | GI50 of drug (A498 [2]) [µM] | GI50 of drug (CAKI-1 [3]) [µM] | GI50 of drug (TK-10 [4]) [µM] | GI50 of drug (ACHN [5]) [µM] | GI50 of drug (UO-31 [6]) [µM] | GI50 of drug (786-O [7]) [µM] | GI50 of drug (769-P [8]) [µM] | AUC of dose-response viability curve (SN12C [9]) | AUC of dose-response viability curve (A498 [10]) | AUC of dose-response viability curve (CAKI-1 [11]) | AUC of dose-response viability curve (TK-10 [12]) | AUC of dose-response viability curve (ACHN [13]) | AUC of dose-response viability curve (UO-31 [14]) | AUC of dose-response viability curve (786-O [15]) | AUC of dose-response viability curve (769-P [16]) | minimum viability across doses (SN12C [17]) | minimum viability across doses (A498 [18]) | minimum viability across doses (CAKI-1 [19]) | minimum viability across doses (TK-10 [20]) | minimum viability across doses (ACHN [21]) | minimum viability across doses (UO-31 [22]) | minimum viability across doses (786-O [23]) | minimum viability across doses (769-P [24])
O=C1NC(=O)/C(=C/c2ccc3nccc(-c4ccncc4)c3c2)S1 + Cc1nc(Nc2ncc(C(=O)Nc3c(C)cccc3Cl)s2)cc(N2CCN(CCO)CC2)n1 [dasatinib] | 0.304 | 0.383 | 0.075 | 0.93 | 0.101 | 0.5 | 0.136 | 0.294 | 1.76 | 2.01 | 1.29 | 2.17 | 1.45 | 2.17 | 1.53 | 1.8 | 0.243 | 0.138 | 0.0502 | 0.318 | 0.108 | 0.0612 | 0.00524 | 0.261
COc1cc(Nc2ncc(F)c(Nc3ccc4c(n3)NC(=O)C(C)(C)O4)n2)cc(OC)c1OC [R406(free base)] + Cc1nc(Nc2ncc(C(=O)Nc3c(C)cccc3Cl)s2)cc(N2CCN(CCO)CC2)n1 [dasatinib] | 1.39 | > 10 | 0.231 | 1.38 | 0.032 | 1.61 | 0.571 | 1.53 | 2.05 | 3.18 | 1.54 | 2.19 | 1.11 | 3.16 | 1.77 | 2.08 | 0.189 | 0.591 | 0.0291 | 0.348 | 0.0361 | 0.0124 | 0.168 | 0.13
COc1ccc2c(Oc3ccc(NC(=O)c4c(C)n(CC(C)(C)O)n(-c5ccccc5)c4=O)nc3)ccnc2c1 [AMG458] + Cc1nc(Nc2ncc(C(=O)Nc3c(C)cccc3Cl)s2)cc(N2CCN(CCO)CC2)n1 [dasatinib] | 1.73 | > 10 | 0.893 | 5.3 | 1 | 4.3 | 4 | 3.38 | 2.06 | 3.38 | 1.92 | 2.39 | 1.89 | 3.35 | 2.08 | 2.27 | 0.396 | 0.771 | 0.085 | 0.392 | 0.152 | 0.0124 | 0.195 | 0.421
COc1ccc(COc2cc3oc(=O)c4cc(C(C)O)ccc4c3cc2OC)cc1 (stereo unspecified) [Palomid 529] + Cc1nc(Nc2ncc(C(=O)Nc3c(C)cccc3Cl)s2)cc(N2CCN(CCO)CC2)n1 [dasatinib] | > 10 | > 10 | 5.94 | > 10 | > 10 | > 10 | 2.96 | 6.22 | 2.53 | 3.49 | 2.25 | 2.53 | 2.1 | 4.61 | 2.05 | 2.29 | 0.707 | 0.857 | 0.414 | 0.635 | 0.539 | 1.17 | 0.324 | 0.415
COc1cc(Nc2ncc(F)c(Nc3ccc4c(n3)NC(=O)C(C)(C)O4)n2)cc(OC)c1OC.O=S(=O)(O)c1ccccc1 [R406] + Cc1nc(Nc2ncc(C(=O)Nc3c(C)cccc3Cl)s2)cc(N2CCN(CCO)CC2)n1 [dasatinib] | 0.908 | > 10 | 0.24 | 1.58 | 0.173 | 1.57 | 0.724 | 2.2 | 2.04 | 3.28 | 1.53 | 2.22 | 1.71 | 2.12 | 1.91 | 2.23 | 0.235 | 0.675 | 0.0338 | 0.347 | 0.0817 | 0.0103 | 0.232 | 0.139
CN(C)CC[C@H](CSc1ccccc1)Nc1ccc(S(=O)(=O)NC(=O)c2ccc(N3CCN(Cc4ccccc4-c4ccc(Cl)cc4)CC3)cc2)cc1[N+](=O)[O-] [ABT-737] + Cc1nc(Nc2ncc(C(=O)Nc3c(C)cccc3Cl)s2)cc(N2CCN(CCO)CC2)n1 [dasatinib] | > 10 | 5.92 | > 10 | 3.3 | 2.56 | 3.31 | 0.469 | 2.14 | 2.58 | 3.1 | 2.41 | 2.24 | 1.9 | 3.71 | 1.74 | 2.31 | 0.515 | 0.171 | 0.65 | 0.144 | 0.23 | 0.00776 | 0.00111 | 0.0505
C#Cc1cccc(Nc2ncnc3cc(OCCOC)c(OCCOC)cc23)c1.Cl [Erlotinib HCl] + Cc1nc(Nc2ncc(C(=O)Nc3c(C)cccc3Cl)s2)cc(N2CCN(CCO)CC2)n1 [dasatinib] | > 10 | > 10 | 1.06 | 2.44 | 0.206 | 5.54 | 8.92 | 0.44 | 2.54 | 3.48 | 1.97 | 2.4 | 1.73 | 3.03 | 2.65 | 1.94 | 0.589 | 0.718 | 0.125 | 0.37 | 0.114 | 0.249 | 0.469 | 0.234
Cc1cc(CN2CCN(c3c(Br)cnc4[nH]c(-c5ccc(N6CCN(C)CC6)cc5)nc34)CC2)no1 + Cc1nc(Nc2ncc(C(=O)Nc3c(C)cccc3Cl)s2)cc(N2CCN(CCO)CC2)n1 [dasatinib] | 0.626 | 2.01 | 0.231 | 1.82 | 0.141 | 2.45 | 0.232 | 0.504 | 1.78 | 3.1 | 1.57 | 2.24 | 1.5 | 3.64 | 1.52 | 1.76 | 0.00484 | 0.0164 | 0.00433 | 0.198 | 0.0106 | 0.0168 | 0.00361 | 0.019
c1cncc(CN2CCC(n3ncc4c(N5CCOCC5)nc(-c5ccc6[nH]ccc6c5)nc43)CC2)c1 [WAY-600] + Cc1nc(Nc2ncc(C(=O)Nc3c(C)cccc3Cl)s2)cc(N2CCN(CCO)CC2)n1 [dasatinib] | 0.523 | 4.49 | 0.306 | 0.433 | 0.0912 | 1.1 | 0.524 | 0.688 | 1.85 | 3.1 | 1.63 | 1.83 | 1.39 | 2.62 | 1.56 | 1.93 | 0.119 | 0.0551 | 0.0191 | 0.045 | 0.0438 | 0.0101 | 0.00323 | 0.0156
Cl.N=C(N)NC(=N)NCCc1ccccc1 [Phenformin hydrochloride] + Cc1nc(Nc2ncc(C(=O)Nc3c(C)cccc3Cl)s2)cc(N2CCN(CCO)CC2)n1 [dasatinib] | 4.33 | > 10 | > 10 | 5.02 | 3.14 | 4.39 | 1.06 | > 10 | 2.36 | 3.25 | 2.28 | 2.35 | 2.08 | 2.83 | 1.84 | 2.41 | 0.114 | 0.676 | 0.578 | 0.315 | 0.357 | 0.194 | 0.115 | 0.623
Cc1csc(-c2nnc(Nc3ccc(Oc4ncccc4-c4ccnc(N)n4)cc3)c3ccccc23)c1 [AMG 900] + Cc1nc(Nc2ncc(C(=O)Nc3c(C)cccc3Cl)s2)cc(N2CCN(CCO)CC2)n1 [dasatinib] | 0.383 | > 10 | 0.0154 | 6.46 | 0.00854 | > 10 | 0.0072 | 0.0361 | 1.93 | 3.08 | 1.32 | 2.2 | 1.25 | 4.1 | 0.863 | 1.44 | 0.319 | 0.562 | 0.286 | 0.459 | 0.186 | 0.604 | 0.117 | 0.211
CN1CCN(CCOc2cc(OC3CCOCC3)c3c(Nc4c(Cl)ccc5c4OCO5)ncnc3c2)CC1 [Saracatinib (AZD0530)] + Cc1nc(Nc2ncc(C(=O)Nc3c(C)cccc3Cl)s2)cc(N2CCN(CCO)CC2)n1 [dasatinib] | > 10 | > 10 | 0.878 | 0.709 | 0.366 | 1.09 | 2 | 0.311 | 2.39 | 3.19 | 2.01 | 2.19 | 1.79 | 2.51 | 2.28 | 1.68 | 0.536 | 0.616 | 0.14 | 0.102 | 0.192 | 0.158 | 0.333 | 0.0614
c1ccc2c(-c3cnn4cc(-c5ccc(N6CCNCC6)cc5)cnc34)ccnc2c1 + Cc1nc(Nc2ncc(C(=O)Nc3c(C)cccc3Cl)s2)cc(N2CCN(CCO)CC2)n1 [dasatinib] | 1.58 | 3.18 | 1.79 | 3.06 | 0.999 | 3.05 | 2.09 | 1.34 | 2.19 | 3.1 | 2.19 | 2.51 | 1.77 | 3.73 | 2.41 | 2.03 | 0.00173 | 0.00332 | 0.00191 | 0.00532 | 0.0011 | 0.00301 | 0.00229 | 0.00161
COC(=O)Nc1ccc(-c2nc(N3CCOCC3)c3cnn(C4CCN(Cc5cccnc5)CC4)c3n2)cc1 [WYE-687] + Cc1nc(Nc2ncc(C(=O)Nc3c(C)cccc3Cl)s2)cc(N2CCN(CCO)CC2)n1 [dasatinib] | 0.414 | 2.28 | 0.153 | 0.231 | 0.0833 | 0.572 | 0.618 | 0.481 | 1.78 | 2.89 | 1.51 | 1.79 | 1.38 | 2.8 | 2.02 | 1.81 | 0.13 | 0.251 | 0.0365 | 0.058 | 0.0388 | 0.00676 | 0.212 | 0.074
